“And” between values parts separate entries of the source, which are not always exact repeats. Equal entries are not always repeated. Where two headings read alike, the source gives them in different places.
What was measured:
S. typhimurium TA100 = experiment: Ames test (Salmonella/microsome mutagenicity assay), strain TA100; type: cell-based, Salmonella typhimurium
Protocol: (§1) The study was carried out according to the indications of Maron and Ames, as well as with the recommendations expressed by the OCDE with respect to this assay. The Salmonella typhimurium strains used were TA98, TA100, TA102, TA1535, and TA1537.
(§2) In this case, the concentrations used were 10, 50, 100, 500, and 1000 µg/plate. Both studies were performed without and with the inclusion of the S9 fraction. In the last case, the S9 fraction was mixed with 5 mM glucose-6 phosphate, 4 mM NADPH, 8 mM MgCl2, and phosphate buffer at pH 7.4. The reaction mixture with or without S9 was placed in Petri dishes containing minimum agar plus glucose and Vogel–Bonner salts and left at 37 °C for 48 h. Finally, the number of revertant colonies (His^+) in each treatment was counted. Importantly, we used different mutagens as positive controls depending on the strain.
(§3) The toxicity of the tested agents was assessed by observing background bacterial growth on minimal agar plates due to traces of histidine in the medium.

S. typhimurium TA98 [1] = experiment: Ames test (Salmonella/microsome mutagenicity assay), strain TA98; type: cell-based, Salmonella typhimurium
Protocol: as §1, §2, §3

S. typhimurium TA102 = experiment: Ames test (Salmonella/microsome mutagenicity assay), strain TA102; type: cell-based, Salmonella typhimurium
Protocol: as §1, §2, §3

S. typhimurium TA1537 = experiment: Ames test (Salmonella/microsome mutagenicity assay), strain TA1537; type: cell-based, Salmonella typhimurium
Protocol: as §1, §2, §3

S. typhimurium TA1535 = type: cell-based, Salmonella typhimurium; details: positive mutagen
Protocol: as §1, §2, §3

human CYP1A1 [2] = biological target: T1, human CYP1A1 (Homo sapiens, UniProt P04798); experiment: biochemical
T1 sequence (P04798 1-512): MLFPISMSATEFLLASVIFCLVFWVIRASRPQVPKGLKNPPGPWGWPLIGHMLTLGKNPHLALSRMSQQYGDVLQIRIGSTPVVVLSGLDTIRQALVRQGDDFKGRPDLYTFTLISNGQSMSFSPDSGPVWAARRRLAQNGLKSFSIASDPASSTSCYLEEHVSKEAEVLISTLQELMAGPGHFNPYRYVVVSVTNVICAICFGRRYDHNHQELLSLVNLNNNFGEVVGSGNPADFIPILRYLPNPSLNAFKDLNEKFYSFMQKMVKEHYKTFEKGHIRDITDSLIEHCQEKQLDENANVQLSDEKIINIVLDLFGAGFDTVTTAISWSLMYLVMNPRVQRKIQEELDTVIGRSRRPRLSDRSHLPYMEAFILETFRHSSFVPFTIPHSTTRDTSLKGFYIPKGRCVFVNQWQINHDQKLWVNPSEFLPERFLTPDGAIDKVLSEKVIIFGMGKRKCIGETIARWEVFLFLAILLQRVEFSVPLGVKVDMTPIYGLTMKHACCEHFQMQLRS
Protocol: (§4) The protein content was estimated via the Bradford assay.
(§5) To determine the type of inhibition, an incubation volume of 200 μL containing human CYP1A1 bacterial membranes (80 μg) and 0.5 mM NADPH in buffer pH 7.6 (50 mM Tris–HCl and 25 mM MgCl2) was used.

[3] = system: strain TA98 of S. typhimurium; details: cited from earlier work
human CYP1A1 [4] = biological target: T1, human CYP1A1; details: nonlinear regression and Lineweaver–Burk plots
Protocol: as §4, §5

rat hepatocytes = details: cited from earlier work
[5] = system: Salmonella typhimurium strains TA98, TA100, TA102, TA1535, and TA1537; experiment: Ames test, overall verdict over the five strains; type: cell-based
Protocol: as §1, §2, §3

Salmonella typhimurium = details: cited from earlier work
mouse bone marrow = details: cited from earlier work
S. typhimurium TA98 [6] = details: strain TA98; cited from earlier work

O=[N+]([O-])c1ccc2c(c1)Cc1ccccc1-2 [2-nitrofluorene, reference compound]
His^+ Revertants (S. typhimurium TA100; positive mutagen, TA100 (−S9), 5 µg): 1909 ± 428 ^1
His^+ Revertants (S. typhimurium TA98 [1]; positive mutagen, TA98 (−S9), 5 µg): 2419 ± 169 ^1 and 2070 ± 44 ^1

Nc1ccc2cc3ccccc3cc2c1 [aminoanthracene, 2-aminoanthracene, reference compound]
His^+ Revertants (S. typhimurium TA102; positive mutagen, TA102 (+S9), 5 µg): 2080 ± 27 ^7
His^+ Revertants (S. typhimurium TA1537; positive mutagen, TA1537 (+S9), 2 µg): 120 ± 12 ^4
His^+ Revertants (S. typhimurium TA1535; TA1535 (+S9), 2 µg): 371 ± 20 ^4

C=CCc1ccc2c(c1)OCO2 [safrole, 5-(2-propenyl)-1,3-benzodioxone]
His^+ Revertants (S. typhimurium TA102; TA102 (+S9), 10 μg/plate): 573 ± 6
His^+ Revertants (S. typhimurium TA102; TA102 (+S9), 50 μg/plate): 558 ± 14
His^+ Revertants (S. typhimurium TA102; TA102 (+S9), 100 μg/plate): 520 ± 10
His^+ Revertants (S. typhimurium TA102; TA102 (+S9), 500 μg/plate): 477 ± 17
His^+ Revertants (S. typhimurium TA102; TA102 (+S9), 1000 μg/plate): 504 ± 12
His^+ Revertants (S. typhimurium TA102; TA102 (−S9), 10 μg/plate): 502 ± 4
His^+ Revertants (S. typhimurium TA102; TA102 (−S9), 50 μg/plate): 489 ± 19
His^+ Revertants (S. typhimurium TA102; TA102 (−S9), 100 μg/plate): 484 ± 13
His^+ Revertants (S. typhimurium TA102; TA102 (−S9), 500 μg/plate): 451 ± 18
His^+ Revertants (S. typhimurium TA102; TA102 (−S9), 1000 μg/plate): 512 ± 40
Ki (human CYP1A1 [2]): 0.38 µM
antimutagenic potential against heterocyclic aromatic amines [3]: strong antimutagenic potential
type of inhibition (human CYP1A1 [4]): competitive inhibition
DNA adducts and chromosomal aberrations (rat hepatocytes): induction of DNA adducts and chromosomal aberrations
gene mutations (rat hepatocytes): no gene mutations
toxicity (background bacterial growth) ([5]; tested concentrations): absence of toxicity
mutagenic potential ([5]; with and without S9): absence of a mutagenic effect
His^+ Revertants (S. typhimurium TA1537; TA1537 (+S9), 10 μg/plate): 12 ± 3
His^+ Revertants (S. typhimurium TA1537; TA1537 (+S9), 50 μg/plate): 10 ± 3
His^+ Revertants (S. typhimurium TA1537; TA1537 (+S9), 100 μg/plate): 10 ± 1
His^+ Revertants (S. typhimurium TA1537; TA1537 (+S9), 500 μg/plate): 11 ± 4
His^+ Revertants (S. typhimurium TA1537; TA1537 (+S9), 1000 μg/plate): 9 ± 3
His^+ Revertants (S. typhimurium TA1537; TA1537 (−S9), 10 μg/plate): 10 ± 3
His^+ Revertants (S. typhimurium TA1537; TA1537 (−S9), 50 μg/plate): 14 ± 4
His^+ Revertants (S. typhimurium TA1537; TA1537 (−S9), 100 μg/plate): 10 ± 1
His^+ Revertants (S. typhimurium TA1537; TA1537 (−S9), 500 μg/plate): 12 ± 3
His^+ Revertants (S. typhimurium TA1537; TA1537 (−S9), 1000 μg/plate): 11 ± 4
His^+ Revertants (S. typhimurium TA100; TA100 (+S9), 10 μg/plate): 97 ± 18
His^+ Revertants (S. typhimurium TA100; TA100 (+S9), 50 μg/plate): 108 ± 18
His^+ Revertants (S. typhimurium TA100; TA100 (+S9), 100 μg/plate): 105 ± 9
His^+ Revertants (S. typhimurium TA100; TA100 (+S9), 500 μg/plate): 108 ± 9
His^+ Revertants (S. typhimurium TA100; TA100 (+S9), 1000 μg/plate): 102 ± 9
His^+ Revertants (S. typhimurium TA100; TA100 (−S9), 10 μg/plate): 110 ± 16
His^+ Revertants (S. typhimurium TA100; TA100 (−S9), 50 μg/plate): 120 ± 17
His^+ Revertants (S. typhimurium TA100; TA100 (−S9), 100 μg/plate): 107 ± 10
His^+ Revertants (S. typhimurium TA100; TA100 (−S9), 500 μg/plate): 100 ± 17
His^+ Revertants (S. typhimurium TA100; TA100 (−S9), 1000 μg/plate): 112 ± 6
mutagenicity, Ames test (Salmonella typhimurium): negative
mutagenicity, mouse bone marrow micronuclei assay (mouse bone marrow): negative
mutagenicity (S. typhimurium TA98 [6]): no mutagenicity
His^+ Revertants (S. typhimurium TA98 [1]; TA98 (+S9), 10 μg/plate): 20 ± 2
His^+ Revertants (S. typhimurium TA98 [1]; TA98 (+S9), 50 μg/plate): 34 ± 8
His^+ Revertants (S. typhimurium TA98 [1]; TA98 (+S9), 100 μg/plate): 38 ± 9
His^+ Revertants (S. typhimurium TA98 [1]; TA98 (+S9), 500 μg/plate): 26 ± 9
His^+ Revertants (S. typhimurium TA98 [1]; TA98 (+S9), 1000 μg/plate): 36 ± 7
His^+ Revertants (S. typhimurium TA98 [1]; TA98 (−S9), 10 μg/plate): 19 ± 3
His^+ Revertants (S. typhimurium TA98 [1]; TA98 (−S9), 50 μg/plate): 22 ± 7
His^+ Revertants (S. typhimurium TA98 [1]; TA98 (−S9), 100 μg/plate): 27 ± 4
His^+ Revertants (S. typhimurium TA98 [1]; TA98 (−S9), 500 μg/plate): 18 ± 3
His^+ Revertants (S. typhimurium TA98 [1]; TA98 (−S9), 1000 μg/plate): 22 ± 9

[N-]=[N+]=[N-].[Na+] [sodium azide]
His^+ Revertants (S. typhimurium TA1535; TA1535 (−S9), 1 µg): 481 ± 28 ^3

CC1=NN(c2ccc([N+](=O)[O-])cc2)C(=O)C1[N+](=O)[O-] (stereo not drawn) [picrolonic acid, reference compound]
His^+ Revertants (S. typhimurium TA1537; positive mutagen, TA1537 (−S9), 100 µg): 63 ± 2 ^5

Source: publication PMC11943675, “Studies of Piper auritum Kuntz’s Mutagenic and Antimutagenic Properties Using the Ames Test” (Metabolites, 2025)
